Assay results as given in PubChem BioAssay (NCI).
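Cells were grown in 96-well plates and exposed to each compound for 48 hours at five concentrations; endpoints were interpolated linearly between bracketing concentrations, or set to the highest concentration if not reached. GI50: concentration for 50% inhibition of growth. TGI denotes the concentration required for complete inhibition of growth.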

Tests used:
Assay in all cases: NCI-60 cell line screen, 48 h
HL-60(TB) leukemia = tested on: HL-60(TB) leukemia
SF-295 CNS = tested on: SF-295 CNS
CCRF-CEM leukemia = tested on: CCRF-CEM leukemia
OVCAR-5 ovarian = tested on: OVCAR-5 ovarian
NCI-H226 lung = tested on: NCI-H226 lung
SK-MEL-5 melanoma = tested on: SK-MEL-5 melanoma
TK-10 renal = tested on: TK-10 renal
HOP-92 NSCLC = tested on: HOP-92 NSCLC
SNB-75 CNS = tested on: SNB-75 CNS

## CC(C)(C)OC(=O)NCCNC(=O)CN(CC(=O)O)C1CCCCC1N(CC(=O)O)CC(=O)O (configuration not stated)
HL-60(TB) leukemia
  TGI: > 100 µM
SF-295 CNS
  TGI: > 100 µM
CCRF-CEM leukemia
  TGI: > 100 µM
OVCAR-5 ovarian
  TGI: > 100 µM
NCI-H226 lung
  TGI: > 100 µM
SK-MEL-5 melanoma
  TGI: > 100 µM
TK-10 renal
  TGI: > 100 µM
HOP-92 NSCLC
  TGI: > 100 µM
SNB-75 CNS
  TGI: > 100 µM

## c1ccc(-c2nc3ccccc3n3nnnc23)cc1
HL-60(TB) leukemia
  TGI: > 100 µM
CCRF-CEM leukemia
  TGI: > 100 µM
OVCAR-5 ovarian
  TGI: > 100 µM
NCI-H226 lung
  TGI: > 100 µM
SK-MEL-5 melanoma
  TGI: > 100 µM
TK-10 renal
  TGI: > 100 µM
HOP-92 NSCLC
  TGI: > 100 µM

## COC1=C(OC)C(=O)C(Cc2c(Cl)nc3n2CCS3)=C(C)C1=O
HL-60(TB) leukemia
  TGI: 6.4 µM
SF-295 CNS
  TGI: 30.4 µM
CCRF-CEM leukemia
  TGI: 8.98 µM
OVCAR-5 ovarian
  TGI: 36 µM
SK-MEL-5 melanoma
  TGI: 23.9 µM
TK-10 renal
  TGI: 32 µM

## Nc1ccc(-c2nc3cc(F)ccc3s2)cc1
HL-60(TB) leukemia
  TGI: > 100 µM
SF-295 CNS
  TGI: > 85.7 µM
CCRF-CEM leukemia
  TGI: > 100 µM
OVCAR-5 ovarian
  TGI: > 92.8 µM
NCI-H226 lung
  TGI: > 100 µM
SK-MEL-5 melanoma
  TGI: > 100 µM
TK-10 renal
  TGI: > 93.1 µM
HOP-92 NSCLC
  TGI: > 93.1 µM
SNB-75 CNS
  TGI: 50.7 µM

## CCc1cc2c(oc3c4ccccc4ccc23)c(=O)[nH]1
HL-60(TB) leukemia
  TGI: > 10 µM
SF-295 CNS
  TGI: > 10 µM
CCRF-CEM leukemia
  TGI: > 10 µM
OVCAR-5 ovarian
  TGI: > 10 µM
NCI-H226 lung
  TGI: > 10 µM
TK-10 renal
  TGI: > 10 µM
HOP-92 NSCLC
  TGI: > 10 µM
SNB-75 CNS
  TGI: > 10 µM

## Clc1ccc(-c2nn3c(C45CC6CC(CC(C6)C4)C5)nnc3s2)cc1
HL-60(TB) leukemia
  TGI: > 100 µM
SF-295 CNS
  TGI: > 100 µM
CCRF-CEM leukemia
  TGI: > 100 µM
OVCAR-5 ovarian
  TGI: > 100 µM
NCI-H226 lung
  TGI: > 100 µM
SK-MEL-5 melanoma
  TGI: > 100 µM
TK-10 renal
  TGI: > 100 µM
HOP-92 NSCLC
  TGI: > 100 µM
SNB-75 CNS
  TGI: > 100 µM

## O=C1C=C(NCCc2cc(Br)c(O)c(Br)c2)C(=O)c2[nH]cnc21
SF-295 CNS
  TGI: > 100 µM
CCRF-CEM leukemia
  TGI: 41.7 µM
OVCAR-5 ovarian
  TGI: 67.2 µM
NCI-H226 lung
  TGI: > 100 µM
SK-MEL-5 melanoma
  TGI: 29 µM
TK-10 renal
  TGI: > 100 µM
HOP-92 NSCLC
  TGI: 82.3 µM
SNB-75 CNS
  TGI: 69.1 µM

## O=C(NC(CO)CO)c1ccc2cc(C(=O)N3CC(CCl)c4ccc([N+](=O)[O-])cc43)[nH]c2c1 (configuration not stated)
HL-60(TB) leukemia
  TGI: > 100 µM
SF-295 CNS
  TGI: > 100 µM
CCRF-CEM leukemia
  TGI: > 100 µM
OVCAR-5 ovarian
  TGI: > 100 µM
NCI-H226 lung
  TGI: > 100 µM
SK-MEL-5 melanoma
  TGI: > 100 µM
TK-10 renal
  TGI: > 100 µM
HOP-92 NSCLC
  TGI: > 100 µM
SNB-75 CNS
  TGI: > 100 µM

## Cc1csc2n(C)c(=O)c3ccccc3[n+]12
HL-60(TB) leukemia
  TGI: > 100 µM
SF-295 CNS
  TGI: > 100 µM
CCRF-CEM leukemia
  TGI: > 100 µM
OVCAR-5 ovarian
  TGI: > 100 µM
NCI-H226 lung
  TGI: > 100 µM
SK-MEL-5 melanoma
  TGI: > 100 µM
TK-10 renal
  TGI: > 100 µM

## O=c1c(S(=O)(=O)Oc2ccccc2)coc2cc(F)ccc12
SF-295 CNS
  TGI: > 100 µM
CCRF-CEM leukemia
  TGI: > 100 µM
OVCAR-5 ovarian
  TGI: > 100 µM
NCI-H226 lung
  TGI: 73.6 µM
SK-MEL-5 melanoma
  TGI: > 100 µM
TK-10 renal
  TGI: > 100 µM
SNB-75 CNS
  TGI: > 100 µM

## Cc1ccsc1/C=N/Nc1ccccn1
SF-295 CNS
  TGI: > 100 µM
CCRF-CEM leukemia
  TGI: > 100 µM
OVCAR-5 ovarian
  TGI: > 100 µM
NCI-H226 lung
  TGI: > 100 µM
SK-MEL-5 melanoma
  TGI: 54.4 µM
TK-10 renal
  TGI: > 100 µM
HOP-92 NSCLC
  TGI: > 100 µM
SNB-75 CNS
  TGI: > 100 µM

## C/C(=N\n1c(Cc2ccccc2)n[nH]c1=O)c1ccc([N+](=O)[O-])cc1
HL-60(TB) leukemia
  TGI: > 100 µM
SF-295 CNS
  TGI: > 100 µM
OVCAR-5 ovarian
  TGI: > 100 µM
NCI-H226 lung
  TGI: > 100 µM
SK-MEL-5 melanoma
  TGI: > 100 µM
TK-10 renal
  TGI: > 100 µM
HOP-92 NSCLC
  TGI: > 100 µM

## CN(/N=C/c1ccc(Cl)c(Cl)c1)C1=NCCN1
SF-295 CNS
  TGI: 69 µM
CCRF-CEM leukemia
  TGI: > 100 µM
OVCAR-5 ovarian
  TGI: > 100 µM
NCI-H226 lung
  TGI: 72 µM
SK-MEL-5 melanoma
  TGI: 30.7 µM
TK-10 renal
  TGI: > 100 µM
HOP-92 NSCLC
  TGI: 62.6 µM
SNB-75 CNS
  TGI: > 100 µM

## O=[N+]([O-])c1ccc(Cl)cc1N/N=C/c1cccs1
HL-60(TB) leukemia
  TGI: > 100 µM
SF-295 CNS
  TGI: > 100 µM
CCRF-CEM leukemia
  TGI: > 100 µM
NCI-H226 lung
  TGI: > 100 µM
SK-MEL-5 melanoma
  TGI: > 100 µM
TK-10 renal
  TGI: > 100 µM
SNB-75 CNS
  TGI: > 100 µM

## C=C(COC(=O)C(C)C)[C@H]1Oc2ccc(C(C)=O)cc2[C@@H]1OC(=O)C(C)C
HL-60(TB) leukemia
  TGI: > 100 µM
SF-295 CNS
  TGI: > 100 µM
CCRF-CEM leukemia
  TGI: > 100 µM
OVCAR-5 ovarian
  TGI: > 100 µM
NCI-H226 lung
  TGI: > 100 µM
SK-MEL-5 melanoma
  TGI: > 100 µM
TK-10 renal
  TGI: > 100 µM
SNB-75 CNS
  TGI: > 100 µM

## O=C1C(CN2CCCC2)CCCC1CN1CCCC1 (configuration not stated)
HL-60(TB) leukemia
  TGI: 0.445 µM
SF-295 CNS
  TGI: > 56.4 µM
CCRF-CEM leukemia
  TGI: 0.231 µM
OVCAR-5 ovarian
  TGI: 13.2 µM
NCI-H226 lung
  TGI: 59.1 µM
SK-MEL-5 melanoma
  TGI: 30.4 µM
TK-10 renal
  TGI: 5.5 µM
SNB-75 CNS
  TGI: 35.6 µM

## O=C1CC(Cl)c2c(Cl)sc(Cl)c21 (configuration not stated)
HL-60(TB) leukemia
  TGI: 3.23 µM
SF-295 CNS
  TGI: 31.7 µM
OVCAR-5 ovarian
  TGI: 34.7 µM
NCI-H226 lung
  TGI: 28.8 µM
SK-MEL-5 melanoma
  TGI: 26.2 µM
TK-10 renal
  TGI: 4.51 µM
HOP-92 NSCLC
  TGI: 3.44 µM
SNB-75 CNS
  TGI: 22.8 µM

## Cc1ccc(CC(=O)Nc2ccc(NC(=O)CNC(=O)/C=C/c3ccc(-c4ccccc4)cc3)cc2C(=O)c2ccccc2)cc1
HL-60(TB) leukemia
  TGI: 20.7 µM
SF-295 CNS
  TGI: 4.86 µM
CCRF-CEM leukemia
  TGI: 17.1 µM
OVCAR-5 ovarian
  TGI: 23.1 µM
NCI-H226 lung
  TGI: 8.39 µM
SK-MEL-5 melanoma
  TGI: 6.32 µM
TK-10 renal
  TGI: 5.95 µM
HOP-92 NSCLC
  TGI: 15.4 µM

## COc1ccc(/C=C/C(c2cc(OC)c(OC)c(OC)c2)n2cncn2)cc1O (configuration not stated)
HL-60(TB) leukemia
  GI50: 0.0245 µM
  TGI: 0.0627 µM
CCRF-CEM leukemia
  GI50: 0.032 µM
  TGI: > 100 µM
OVCAR-5 ovarian
  GI50: 4.48 µM
  TGI: 72.6 µM
NCI-H226 lung
  GI50: 5.93 µM
  TGI: > 100 µM
SK-MEL-5 melanoma
  GI50: 0.0458 µM
  TGI: 35.4 µM
TK-10 renal
  GI50: 21.2 µM
  TGI: > 100 µM
HOP-92 NSCLC
  GI50: 67 µM
  TGI: > 100 µM

## CC1CN=C(N(C)C(=O)Nc2ccc(Cl)c(Cl)c2)S1 (configuration not stated)
HL-60(TB) leukemia
  TGI: 57.1 µM
SF-295 CNS
  TGI: > 100 µM
CCRF-CEM leukemia
  TGI: > 100 µM
OVCAR-5 ovarian
  TGI: 89.9 µM
SK-MEL-5 melanoma
  TGI: 29.9 µM
TK-10 renal
  TGI: 92.5 µM
HOP-92 NSCLC
  TGI: 22.9 µM
SNB-75 CNS
  TGI: > 100 µM

## Clc1cccc(N=C/C=C/Nc2cccc(Cl)c2)c1
HL-60(TB) leukemia
  TGI: 39.9 µM
SF-295 CNS
  TGI: 24.4 µM
OVCAR-5 ovarian
  TGI: 59.9 µM
SK-MEL-5 melanoma
  TGI: 44 µM
TK-10 renal
  TGI: > 100 µM
HOP-92 NSCLC
  TGI: > 100 µM

## c1cn[nH]c1
HL-60(TB) leukemia
  TGI: > 10 µM
SF-295 CNS
  TGI: > 10 µM
CCRF-CEM leukemia
  TGI: > 10 µM
NCI-H226 lung
  TGI: > 10 µM
SK-MEL-5 melanoma
  TGI: > 10 µM
TK-10 renal
  TGI: > 10 µM
HOP-92 NSCLC
  TGI: > 10 µM
SNB-75 CNS
  TGI: > 10 µM

## Cc1nn(-c2ccccc2)c2c1N=C(C(=O)O)CC(c1ccccc1)=N2
HL-60(TB) leukemia
  TGI: > 10 µM
SF-295 CNS
  TGI: > 10 µM
SK-MEL-5 melanoma
  TGI: > 10 µM
TK-10 renal
  TGI: > 10 µM
HOP-92 NSCLC
  TGI: > 10 µM
SNB-75 CNS
  TGI: > 10 µM

## CCCCNCC(O)c1cc(-c2ccc(C(F)(F)F)cc2)nc(-c2ccc(C(F)(F)F)cc2)c1 (configuration not stated)
SK-MEL-5 melanoma
  GI50: 1.77 µM
  TGI: 3.26 µM
TK-10 renal
  GI50: 2.16 µM
  TGI: 3.83 µM
SNB-75 CNS
  GI50: 1.91 µM
  TGI: 3.6 µM

## CC(=O)C(C(=O)C(C)(C)C)C(=O)C(C)(C)C
HL-60(TB) leukemia
  TGI: > 100 µM
SF-295 CNS
  TGI: > 100 µM
CCRF-CEM leukemia
  TGI: > 100 µM
OVCAR-5 ovarian
  TGI: > 100 µM
SK-MEL-5 melanoma
  TGI: > 100 µM
TK-10 renal
  TGI: > 100 µM
HOP-92 NSCLC
  TGI: > 100 µM
SNB-75 CNS
  TGI: > 100 µM
